Results from the supplement of paper PMC8149375.

Legend:
Conditions in all cases: treatment: drug + dasatinib (fixed dose, not stated); 5 days
TK-10 [1] = experiment: minimum viability across doses, drug + dasatinib, relative to DMSO (fraction); higher = less growth inhibition
Protocol: (§1)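 Primary HTS combination arm: 8 RCC cell lines treated with 8 doses (up to 10 uM) of each library drug plus a fixed dose of dasatinib (dose not stated) for 5 days; viability read by CellTiter-Glo and normalised to DMSO. GI50 was fitted with XLfit, AUC is the area under the dose-response curve, and minimum viability is the lowest fraction of DMSO viability across doses.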

A498 [2] = experiment: as above
Protocol: as §1

CAKI-1 [3] = experiment: as above
Protocol: as §1

769-P [4] = experiment: as above
Protocol: as §1

786-O [5] = experiment: as above
Protocol: as §1

ACHN [6] = experiment: as above
Protocol: as §1

SN12C [7] = experiment: as above
Protocol: as §1

UO-31 [8] = experiment: as above
Protocol: as §1

TK-10 [9] = experiment: GI50 of drug in presence of dasatinib; higher = less potent
Protocol: as §1

A498 [10] = experiment: as above
Protocol: as §1

CAKI-1 [11] = experiment: as above
Protocol: as §1

769-P [12] = experiment: as above
Protocol: as §1

786-O [13] = experiment: as above
Protocol: as §1

ACHN [14] = experiment: as above
Protocol: as §1

SN12C [15] = experiment: as above
Protocol: as §1

UO-31 [16] = experiment: as above
Protocol: as §1

TK-10 [17] = experiment: AUC of dose-response viability curve, drug + dasatinib, normalised to DMSO (arbitrary (AUC of normalised viability)); higher = less growth inhibition
Protocol: as §1

A498 [18] = experiment: as above
Protocol: as §1

CAKI-1 [19] = experiment: as above
Protocol: as §1

769-P [20] = experiment: as above
Protocol: as §1

786-O [21] = experiment: as above
Protocol: as §1

ACHN [22] = experiment: as above
Protocol: as §1

SN12C [23] = experiment: as above
Protocol: as §1

UO-31 [24] = experiment: as above
Protocol: as §1

Structure (SMILES)	minimum viability across doses (TK-10 [1])	minimum viability across doses (A498 [2])	minimum viability across doses (CAKI-1 [3])	minimum viability across doses (769-P [4])	minimum viability across doses (786-O [5])	minimum viability across doses (ACHN [6])	minimum viability across doses (SN12C [7])	minimum viability across doses (UO-31 [8])	GI50 of drug (TK-10 [9])	GI50 of drug (A498 [10])	GI50 of drug (CAKI-1 [11])	GI50 of drug (769-P [12])	GI50 of drug (786-O [13])	GI50 of drug (ACHN [14])	GI50 of drug (SN12C [15])	GI50 of drug (UO-31 [16])	AUC of dose-response viability curve (TK-10 [17])	AUC of dose-response viability curve (A498 [18])	AUC of dose-response viability curve (CAKI-1 [19])	AUC of dose-response viability curve (769-P [20])	AUC of dose-response viability curve (786-O [21])	AUC of dose-response viability curve (ACHN [22])	AUC of dose-response viability curve (SN12C [23])	AUC of dose-response viability curve (UO-31 [24])
O=C(Nc1c[nH]nc1-c1nc2cc(CN3CCOCC3)ccc2[nH]1)NC1CC1 [AT9283] + Cc1nc(Nc2ncc(C(=O)Nc3c(C)cccc3Cl)s2)cc(N2CCN(CCO)CC2)n1 [dasatinib]	0.0526	0.0108	0.0645	0.0379	0.00871	0.0114	0.00616	0.0134	253 nM	0.633 µM	134 nM	128 nM	48.7 nM	48.8 nM	672 nM	306 nM	1.83	2.4	1.67	1.46	1.19	1.18	1.75	1.87
O=C(Nc1cccc(Nc2ncc(Br)c(NCCc3cnc[nH]3)n2)c1)N1CCCC1 [BX-912] + Cc1nc(Nc2ncc(C(=O)Nc3c(C)cccc3Cl)s2)cc(N2CCN(CCO)CC2)n1 [dasatinib]	0.144	0.365	0.0425	0.335	0.0673	0.168	0.0907	0.288	2590 nM	5.82 µM	502 nM	4600 nM	937 nM	1280 nM	1180 nM	9130 nM	2.25	2.97	1.8	2.3	1.78	1.9	2.23	3.19
COc1cc2nccc(Oc3ccc(NC(=O)NC4CC4)c(Cl)c3)c2cc1C(N)=O [E7080 (Lenvatinib)] + Cc1nc(Nc2ncc(C(=O)Nc3c(C)cccc3Cl)s2)cc(N2CCN(CCO)CC2)n1 [dasatinib]	0.682	0.795	0.0901	0.321	0.674	0.247	0.312	0.338	> 10000 nM	> 10 µM	431 nM	4520 nM	> 10000 nM	1260 nM	> 10000 nM	7260 nM	2.65	3.47	1.81	2.26	2.62	1.96	2.22	1.8
COc1cc2nccc(Oc3ccc(NC(=O)Nc4cc(C)on4)c(Cl)c3)c2cc1OC [Tivozanib (AV-951)] + Cc1nc(Nc2ncc(C(=O)Nc3c(C)cccc3Cl)s2)cc(N2CCN(CCO)CC2)n1 [dasatinib]	0.493	0.457	0.0242	0.146	0.569	0.0982	0.134	0.0455	9670 nM	9.89 µM	743 nM	1570 nM	> 10000 nM	1630 nM	1950 nM	4150 nM	2.55	3.13	1.75	2.1	2.68	1.95	2.12	3.32
COc1cc2c(Oc3ccc4[nH]c(C)cc4c3F)ncnc2cc1OCCCN1CCCC1 [Cediranib (AZD2171)] + Cc1nc(Nc2ncc(C(=O)Nc3c(C)cccc3Cl)s2)cc(N2CCN(CCO)CC2)n1 [dasatinib]	0.0412	0.154	0.019	0.145	0.13	0.0558	0.0758	0.014	2240 nM	2.39 µM	287 nM	3970 nM	1350 nM	210 nM	355 nM	617 nM	2.35	2.63	1.59	2.35	2.21	1.61	1.85	2.17
O=C1c2ccccc2-c2n[nH]c3cccc1c23 + Cc1nc(Nc2ncc(C(=O)Nc3c(C)cccc3Cl)s2)cc(N2CCN(CCO)CC2)n1 [dasatinib]	0.407	0.693	0.106	0.558	0.351	0.261	0.629	0.529	6490 nM	> 10 µM	2880 nM	> 10000 nM	5350 nM	6750 nM	> 10000 nM	> 10000 nM	2.45	3.27	2.12	2.38	2.31	2.22	2.5	3.27
Nc1cccc2c1C(=O)N(C1CCC(=O)NC1=O)C2=O (configuration not stated) [Pomalidomide] + Cc1nc(Nc2ncc(C(=O)Nc3c(C)cccc3Cl)s2)cc(N2CCN(CCO)CC2)n1 [dasatinib]	0.639	0.857	0.642	0.65	0.617	0.542	0.711	0.868	> 10000 nM	> 10 µM	> 10000 nM	> 10000 nM	> 10000 nM	> 10000 nM	> 10000 nM	> 10000 nM	2.5	3.27	2.38	2.65	2.67	2.15	2.58	3.3
CCN1CCN(C(=O)Cc2ccc(Nc3ncc(F)c(Nc4ccc(C(=O)Nc5ccccc5Cl)cc4)n3)cc2)CC1 [Aurora A Inhibitor I] + Cc1nc(Nc2ncc(C(=O)Nc3c(C)cccc3Cl)s2)cc(N2CCN(CCO)CC2)n1 [dasatinib]	0.275	0.53	0.00201	0.0246	0.0991	0.0307	0.00416	0.0547	1010 nM	8.98 µM	281 nM	652 nM	164 nM	130 nM	1190 nM	552 nM	2.18	3.16	1.63	1.98	1.57	1.53	2.09	2.58
c1ccc2c(CCNc3ccc(Nc4ccncc4)cc3)c[nH]c2c1 + Cc1nc(Nc2ncc(C(=O)Nc3c(C)cccc3Cl)s2)cc(N2CCN(CCO)CC2)n1 [dasatinib]	0.00918	0.0451	0.0392	0.0334	0.00475	0.00193	0.00337	0.0188	531 nM	0.748 µM	143 nM	280 nM	> 10000 nM	69.5 nM	672 nM	372 nM	1.83	2.32	1.49	1.69	1.39	1.1	1.86	2.3
Nc1cc(C(F)(F)F)c(-c2cc(N3CCOCC3)nc(N3CCOCC3)n2)cn1 [BKM120 (NVP-BKM120)] + Cc1nc(Nc2ncc(C(=O)Nc3c(C)cccc3Cl)s2)cc(N2CCN(CCO)CC2)n1 [dasatinib]	0.0741	0.101	0.0204	0.0577	0.00305	0.0632	0.0529	0.00967	505 nM	1.25 µM	244 nM	478 nM	81.7 nM	205 nM	914 nM	663 nM	1.84	2.49	1.51	1.83	1.29	1.48	1.84	2.27
Nc1nccc(Oc2ccc(NC(=O)c3c[nH]cc(-c4ccc(F)cc4)c3=O)cc2F)c1Cl + Cc1nc(Nc2ncc(C(=O)Nc3c(C)cccc3Cl)s2)cc(N2CCN(CCO)CC2)n1 [dasatinib]	0.56	0.617	0.323	0.349	0.44	0.395	0.559	0.717	> 10000 nM	> 10 µM	4030 nM	5580 nM	7600 nM	5540 nM	> 10000 nM	> 10000 nM	2.52	3.3	2.03	2.29	2.28	2.2	2.34	4.48
CN(C)C1CCN(C(=O)c2ccc(NC(=O)Nc3ccc(-c4nc(N5CCOCC5)nc(N5CCOCC5)n4)cc3)cc2)CC1 + Cc1nc(Nc2ncc(C(=O)Nc3c(C)cccc3Cl)s2)cc(N2CCN(CCO)CC2)n1 [dasatinib]	0.112	0.0743	0.0335	0.147	0.00554	0.125	0.107	0.117	306 nM	0.0563 µM	302 nM	2870 nM	49.8 nM	165 nM	19.2 nM	1680 nM	1.91	1.37	1.74	2.27	1.23	1.62	1.04	3.11
CC(C)(C)Cn1c(N)nc2ccc(-c3[nH]c(C(C)(C)C)nc3-c3ccc(F)cc3)nc21.CS(=O)(=O)O.CS(=O)(=O)O + Cc1nc(Nc2ncc(C(=O)Nc3c(C)cccc3Cl)s2)cc(N2CCN(CCO)CC2)n1 [dasatinib]	0.447	0.949	0.435	0.255	0.617	0.244	0.54	0.508	5500 nM	> 10 µM	4370 nM	1760 nM	> 10000 nM	24.9 nM	> 10000 nM	> 10000 nM	2.23	3.68	2.18	2.07	2.48	1.45	2.36	3.24
